Two compounds from US20190194607A1, “HIGHLY FUNCTIONAL LIVER CELLS DERIVED FROM PLURIPOTENT STEM CELLS, METHOD FOR PRODUCING SAME, AND METHOD FOR TESTING METABOLISM/TOXICITY OF DRUG” (DNAVEC CORPORATION, priority 2011, published 2019) can be followed below.

The structures appear in SMILES notation.

In series [1] the test system is hepatocytes derived human iPS cells (#40). Put plainly: Drug toxicity test: deviation enzymes in culture supernatant, human iPS cell-derived hepatocytes. In kind it is cell-based. The conditions noted are these: D-GalN 25 mM, 24 hours; FIG. 15(C). Here is the method: (§1) D-Galactosamine (D-GalN), which is known to have toxicity to hepatocytes, was added to pluripotent stem cell-derived hepatocytes at a final concentration of 25 mM, followed by culture at 37° C. After 24 hours, 1.5 mL of culture supernatant was collected and was centrifuged at 15000 rpm at 4° C. to completely remove cell components. The concentrations of liver-derived deviation enzymes contained in the supernatant, i.e., glutamic oxaloacetic transaminase (GOT), glutamic pyruvic transaminase (GPT), γ-glutamyl transpeptidase (y-GTP), leucine aminopeptidase (LAP), lactate dehydrogenase (LDH), and LDH isozyme (LDH 1 to 5), were measured (performed at BML Inc., Shibuya, Tokyo, Japan).

A further series has as its system HepaRG cells. Put plainly: Drug toxicity test: deviation enzymes in culture supernatant, HepaRG cells. In kind it is cell-based, human. The settings on record: cultured in the presence of D-GalN; FIG. 15(G). Here is the method:
(§2) The HepaRG cells were cultured in accordance with the protocol of BIOPREDIC international. The HepG2 cells were purchased from Health Science Research Resources Bank, and the human primary cultured adult hepatocyte cell line was purchased from DS Pharma Biomedical Co., Ltd. (Osaka, Japan). They were cultured using a CS-C medium kit of Cell Systems Corporation (Kirkland, WA, USA). In the figure, 253G1 refers to a human iPS cell line established at Kyoto University, #40 refers to a human iPS cell line established at National Center for Child Health and Development, SeV refers to an iPS cell line induced using a SeV vector, ES-K1 refers to a human ES cell line established at Kyoto University, and CTL is an abbreviation of control.
as §1

Series [2] concerns undifferentiated ES cells. Put plainly: Drug toxicity test: deviation enzymes in culture supernatant, undifferentiated human ES cells. In kind it is cell-based. The settings on record: D-GalN 25 mM, 24 hours; FIG. 15(B).
For series [3], the system named is SeV-iPS-derived hepatocytes. Kind of series: Drug toxicity test: deviation enzymes in culture supernatant, SeV-iPS-derived hepatocytes. In kind it is cell-based, human. The conditions noted are these: cultured in the presence of D-GalN; FIG. 15(E). Here is the method:
as §1

For series [4], the system named is undifferentiated ES cells. Kind of series: Drug toxicity test: deviation enzymes in culture supernatant, undifferentiated cells of FIG. 15(D). In kind it is cell-based, human. The settings on record: D-GalN 25 mM, 24 hours.
Series [5] deals with undifferentiated SeV-iPS cells. Put plainly: Drug toxicity test: deviation enzymes in culture supernatant, undifferentiated SeV-iPS cells. The conditions noted are these: cultured in the presence of D-GalN; FIG. 15(F). In kind it is cell-based, human.
The next series relates to HepG2 cells. Put plainly: Drug toxicity test: deviation enzymes in culture supernatant, HepG2 cells. In kind it is cell-based, human. The conditions noted are these: cultured in the presence of D-GalN; FIG. 15(H). As to the method:
as §2, §1

The test system of series [6] is hepatocytes derived from human ES cells (KhES-1 cell line). Kind of series: Drug toxicity test: liver deviation enzymes in culture supernatant, human ES cell-derived hepatocytes. In kind it is cell-based. The conditions noted are these: D-GalN 25 mM, 24 hours; hepatocytes 28th day from differentiation induction; FIG. 15(A). As to the method: as §1
Series [7] deals with hepatocytes derived from a #40 cell line. Put plainly: PGE1 pretreatment before D-GalN administration: deviation enzymes in culture supernatant. In kind it is cell-based, human. The settings on record: 4 mM PGE1 pretreatment, 37° C. for 4 hours, then D-GalN administration; FIG. 16. Here is the method: as §1
That is, 4 mM PGE1 was added to hepatocytes derived from a #40 cell line in advance, and the hepatocytes were cultured at 37° C. for 4 hours and were subjected to a D-GalN administration experiment as in above. […] Similar tendencies were detected in the samples of hepatocyte differentiation induction from other human iPS cell lines and human ES cell lines.

On to `N[C@H]1C(O)O[C@H](CO)[C@H](O)[C@@H]1O` (stereo partly drawn) [D-GalN, D-Galactosamine], for which, in [1], the LDH isozyme pattern result is ““liver damage-type” pattern in which type 4 and type 5 are dominant”; the “level of GOT in culture supernatant” value is listed as “increased”; the “level of GPT in culture supernatant” value is listed as “increased”; the “level of LAP in culture supernatant” value is “increased”. Besides, in series [1], the “level of LDH in culture supernatant” value is listed as “increased” and the “level of γ-GTP in culture supernatant” value is reported as “increased”. Further, in the series with HepaRG cells, the “level of GOT in the culture supernatant” value was “increased”, the “level of GPT in the culture supernatant” value is given as “increased”, the “level of LAP in the culture supernatant” value is “increased” and the “level of LDH-5 in the culture supernatant” value is listed as “increased”. Also, in the series with HepaRG cells, the “level of γ-GTP in the culture supernatant” value is recorded as “did not increase”. Moreover, in series [2], the “levels of all of the deviation enzymes in culture supernatant” value is “did not increase”. Further, in series [3], the “level of GOT in the culture supernatant” value is given as “increased”. Moreover, in [4], the “level of GOT in culture supernatant” value is reported as “did not increase”, the “level of GPT in culture supernatant” value is reported as “did not increase”, the “level of LAP in culture supernatant” value is reported as “did not increase” and the “level of LDH in culture supernatant” value is “did not increase”. Further, in [4], the “level of γ-GTP in culture supernatant” value is reported as “did not increase”. For the same compound, in series [5], the “level of GOT in the culture supernatant” value is listed as “did not increase”. Moreover, in the series on HepG2 cells, the “level of GOT in the culture supernatant” value was “increased”, the “level of GPT in the culture supernatant” value is “increased”, the “level of LAP in the culture supernatant” value is reported as “did not increase” and the “level of LDH-5 in the culture supernatant” value is listed as “increased”. For the same compound, the “level of γ-GTP in the culture supernatant” value with HepG2 cells is listed as “did not increase”. Also, in series [6], the LDH isozyme pattern result was ““liver damage-type” pattern in which type 4 and type 5 are dominant”; the “level of GOT in culture supernatant” value is listed as “increased”; the “level of LAP in culture supernatant” value is reported as “increased”; the “level of LDH in culture supernatant” value is on record as “increased”. Moreover, the “level of γ-GTP in culture supernatant” value in series [6] is “increased”.

On to `CCCCC[C@H](O)/C=C/[C@H]1[C@H](O)CC(=O)[C@@H]1CCCCCCC(=O)O` [PGE1, prostaglandin E1], for which, in series [7], the “levels of all the deviation enzymes from the liver detected in the culture supernatant after D-GalN” value is “significantly suppressed”.
